From ChEMBL document CHEMBL1150515, “Synthesis and structure-activity relationships of novel THF 1-methylcarbapenems II” (1997)
Values after ≈ are worked out from the molar mass of the structure shown.

Assays:
[1] = system: Acinetobacter calcoaceticus; test: Antimicrobial activity against Acinetobacter calcoaceticus (GC 756); type: functional
[2] = Antimicrobial activity against Citrobacter freundii (GC 2211); type: functional
[3] = target: T1, Dipeptidase 1 (Sus scrofa) (UniProt P22412); test: Relative hydrolysis to that of imipenem was determined by hog renal dehydropeptidase
T1 sequence (whole entry): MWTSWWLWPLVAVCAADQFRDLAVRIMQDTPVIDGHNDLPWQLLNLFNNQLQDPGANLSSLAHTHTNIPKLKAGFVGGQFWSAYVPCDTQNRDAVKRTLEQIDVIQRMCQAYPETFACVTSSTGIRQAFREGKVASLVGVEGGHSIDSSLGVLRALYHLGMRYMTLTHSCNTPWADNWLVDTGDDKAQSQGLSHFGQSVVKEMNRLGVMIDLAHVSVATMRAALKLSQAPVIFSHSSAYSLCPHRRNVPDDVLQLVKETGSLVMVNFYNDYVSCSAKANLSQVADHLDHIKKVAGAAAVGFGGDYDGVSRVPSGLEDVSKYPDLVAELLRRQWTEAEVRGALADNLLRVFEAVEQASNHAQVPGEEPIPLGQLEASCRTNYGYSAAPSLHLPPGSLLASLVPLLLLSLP

[4] = Antimicrobial activity against Enterococcus faecium (GC 1182); type: functional
[5] = Antimicrobial activity against Enterobacter cloacae (GC 2209); type: functional
[6] = Antimicrobial activity against Enterococcus faecalis (GC 842); type: functional
Escherichia coli [7] = test: Antimicrobial activity against Escherichia coli (ATCC 25922); type: functional
Escherichia coli [8] = test: Antimicrobial activity against Escherichia coli (GC 1792); type: functional
Escherichia coli [9] = test: Antimicrobial activity against Escherichia coli (GC 2205); type: functional
[10] = Antimicrobial activity against Morganella morganii (GC 2213); type: functional
Pseudomonas aeruginosa [11] = test: Antimicrobial activity against Pseudomonas aeruginosa (ATCC 27853); type: functional
Pseudomonas aeruginosa [12] = test: Antimicrobial activity against Pseudomonas aeruginosa (GC 1544 OprD); type: functional
Staphylococcus aureus [13] = test: Antimicrobial activity against Staphylococcus aureus (ATCC 29213); type: functional
Staphylococcus aureus [14] = test: Antimicrobial activity against methicillin - resistant Staphylococcus aureus (GC 2220); type: functional
[15] = Antimicrobial activity against Xanthomonas maltophilia (GC 562); type: functional; conditions: Stenotrophomonas maltophilia

Row | Structure (SMILES) | MIC [1] [µg/mL] | MIC [2] [µg/mL] | Relative hydrolysis [3] | MIC [4] [µg/mL] | MIC [5] [µg/mL] | MIC [6] [µg/mL] | MIC (Escherichia coli [7]) [µg/mL] | MIC (Escherichia coli [8]) [µg/mL] | MIC (Escherichia coli [9]) [µg/mL] | MIC [10] [µg/mL] | MIC (Pseudomonas aeruginosa [11]) [µg/mL] | MIC (Pseudomonas aeruginosa [12]) [µg/mL] | MIC (Staphylococcus aureus [13]) [µg/mL] | MIC (Staphylococcus aureus [14]) [µg/mL] | MIC [15] [µg/mL]
1 | CC(=O)NC[C@H]1OCC[C@H]1SC1=C(C(=O)[O-])N2C(=O)[C@H]([C@@H](C)O)[C@H]2[C@H]1C.[Na+] | 16 | 2 | 4 | > 128 | 0.5 | 8 | ≤ 0.06 | 0.12 | ≤ 0.06 | 0.5 | 128 | > 128 | 0.12 | 16 | > 128
2 | C[C@@H](O)[C@H]1C(=O)N2C(C(=O)[O-])=C(SC3COC(C/N=C/N)C3)[C@H](C)[C@H]12.[Na+] (stereo partly specified) | 2 | ≤ 0.06 | – | > 128 | ≤ 0.06 | 2 | ≤ 0.06 | ≤ 0.06 | ≤ 0.06 | 0.5 | 8 | 16 | ≤ 0.06 | 8 | > 128
3 | CC(=O)NCC1CC(SC2=C(C(=O)[O-])N3C(=O)[C@H]([C@@H](C)O)[C@H]3[C@H]2C)CO1.[Na+] (stereo partly specified) | 8 | 2 | 4 | > 128 | 0.5 | 8 | ≤ 0.06 | 0.12 | ≤ 0.06 | 0.5 | 64 | 128 | 0.12 | 16 | > 128
4 | C[C@@H](O)[C@H]1C(=O)N2C(C(=O)O)=C(SCCNC=N)C[C@H]12 [IMIPENEM ANHYDROUS] | 0.25 (≈ 0.835 µM) | 0.25 (≈ 0.835 µM) | 100 | 64 (≈ 214 µM) | ≤ 0.06 | 1 (≈ 3.34 µM) | 0.12 (≈ 0.401 µM) | ≤ 0.06 | 0.12 (≈ 0.401 µM) | 1 (≈ 3.34 µM) | 1 (≈ 3.34 µM) | 16 (≈ 53.4 µM) | ≤ 0.06 | 1 (≈ 3.34 µM) | > 128
5 | C[C@@H](O)[C@H]1C(=O)N2C(C(=O)[O-])=C(S[C@@H]3CCO[C@@H]3CN(C)C)[C@H](C)[C@H]12.[Na+] | 4 | 0.25 | 7.5 | 64 | ≤ 0.12 | 1 | 0.03 | 0.06 | 0.06 | 0.5 | 16 | 32 | 0.06 | 4 | > 128
6 | C[C@@H](N)C(=O)NC[C@H]1OCC[C@H]1SC1=C(C(=O)[O-])N2C(=O)[C@H]([C@@H](C)O)[C@H]2[C@H]1C.[Na+] | 8 | 1 | 3 | > 128 | 0.25 | 2 | ≤ 0.06 | 0.12 | ≤ 0.06 | 1 | 64 | 64 | ≤ 0.06 | 8 | > 128
7 | C[C@H](N)C(=O)N[C@@H](C)C(=O)NC[C@H]1OCC[C@H]1SC1=C(C(=O)[O-])N2C(=O)[C@H]([C@@H](C)O)[C@H]2[C@H]1C.[Na+] | 32 | 8 | 13 | > 128 | 2 | 4 | ≤ 0.06 | ≤ 0.06 | 0.12 | 2 | 64 | > 128 | 1 | 64 | > 128
8 | C[C@@H](O)[C@H]1C(=O)N2C(C(=O)[O-])=C(S[C@@H]3CCO[C@@H]3C/N=C\N)[C@H](C)[C@H]12.[Na+] | 8 | 0.5 | 18 | > 128 | ≤ 0.06 | 2 | ≤ 0.06 | ≤ 0.06 | 0.12 | 1 | 16 | 32 | ≤ 0.06 | 4 | > 128
9 | C[C@@H](O)[C@H]1C(=O)N2C(C(=O)[O-])=C(SC3COC(C/N=C/N(C)C)C3)[C@H](C)[C@H]12.[Na+] (stereo partly specified) | 16 | 0.5 | – | > 128 | 0.12 | 8 | 0.12 | 0.12 | 0.12 | 2 | 16 | 32 | 0.12 | 16 | > 128
10 | C[C@@H](O)[C@H]1C(=O)N2C(C(=O)[O-])=C(S[C@@H]3CCO[C@@H]3CN)[C@H](C)[C@H]12.[Na+] | 2 | ≤ 0.06 | 8.5 | 64 | ≤ 0.06 | 0.5 | ≤ 0.06 | ≤ 0.06 | ≤ 0.06 | 0.5 | 8 | 16 | ≤ 0.06 | 1 | > 128
11 | CNCC(=O)NCC1CC(SC2=C(C(=O)[O-])N3C(=O)[C@H]([C@@H](C)O)[C@H]3[C@H]2C)CO1.[Na+] (stereo partly specified) | 2 | 0.25 | – | > 128 | ≤ 0.06 | 4 | ≤ 0.06 | ≤ 0.06 | ≤ 0.06 | 0.25 | 32 | 32 | ≤ 0.06 | 16 | > 128
12 | C[C@H](N)C(=O)NC[C@H]1OCC[C@H]1SC1=C(C(=O)[O-])N2C(=O)[C@H]([C@@H](C)O)[C@H]2[C@H]1C.[Na+] | 16 | 1 | 12 | > 128 | 0.25 | 4 | ≤ 0.06 | ≤ 0.06 | ≤ 0.06 | 1 | 32 | 64 | 0.12 | 8 | > 128
13 | CCN1CCN(C(=O)NCC2CC(SC3=C(C(=O)[O-])N4C(=O)[C@H]([C@@H](C)O)[C@H]4[C@H]3C)CO2)C(=O)C1=O.[Na+] (stereo partly specified) | 128 | 32 | 13 | > 128 | 8 | 16 | 2 | 4 | 0.25 | 16 | > 128 | 128 | 0.5 | 32 | > 128
14 | C[C@@H](O)[C@H]1C(=O)N2C(C(=O)[O-])=C(SC3COC(C[N+](C)(C)C)C3)[C@H](C)[C@H]12 (stereo partly specified) | 16 (≈ 41.6 µM) | 1 (≈ 2.6 µM) | – | > 128 | 0.25 (≈ 0.65 µM) | 8 (≈ 20.8 µM) | 0.25 (≈ 0.65 µM) | 0.25 (≈ 0.65 µM) | 0.25 (≈ 0.65 µM) | 4 (≈ 10.4 µM) | 32 (≈ 83.2 µM) | 64 (≈ 166 µM) | 0.12 (≈ 0.312 µM) | 16 (≈ 41.6 µM) | > 128
